This note sets out measurements from patent US7504391B2, “Selective D1/D5 receptor antagonists for the treatment of obesity and CNS disorders” (Schering Corporation, priority 2003, dated 2009).

The target of test [1] is T1, human D1 receptors (Homo sapiens, UniProt P21728).
T1 construct: expressed in transfected cells; host or cells: Ltk- cells (mouse fibroblasts); membrane preparation
The test is described as follows: Radioligand binding competition assay at D1 receptor. How it is done:
(§1) Affinity values (Ki) of compounds at human D1 and D2 receptors were ascertained using radioligand binding competition assays. Ltk-cells expressing D1 and D2 (long variant) receptors were lysed in hypotonic buffer for membrane preparation. Membranes were incubated with various concentrations of test compound and 1 nM [3H] of a compound of formula III and 0.2 nM [3H] Methylspiperone for D1 and D2 assays, respectively. Non-specific binding was defined as binding in the presence of 10 micromolar of a compound of formula III for D1 assays and 10 micromolar butaclamol for […]. Following incubation to equilibrium (1 hour at room temperature), bound radioligand was separated from free by rapid filtration. Bound radioactivity on the dried filters was quantified by liquid scintillation counting.
(§2) Selectivity is determined by dividing Ki for D2 receptor by Ki for D1 receptor.

Test [2] relates to human D1 receptors. Described as above. The note with it: Ki for D2 receptor divided by Ki for D1 receptor. How it is done:
as §1, §2

Setting [3] is: class by Ki (D1) and selectivity (Ki D2 / Ki D1), human D1 and D2 (long variant) receptors, Ltk- cell membranes, read-out: D1 binding and D2:D1 Selectivity.

Where two headings read alike, the source gives them in different places.

T1 sequence (P21728 whole entry): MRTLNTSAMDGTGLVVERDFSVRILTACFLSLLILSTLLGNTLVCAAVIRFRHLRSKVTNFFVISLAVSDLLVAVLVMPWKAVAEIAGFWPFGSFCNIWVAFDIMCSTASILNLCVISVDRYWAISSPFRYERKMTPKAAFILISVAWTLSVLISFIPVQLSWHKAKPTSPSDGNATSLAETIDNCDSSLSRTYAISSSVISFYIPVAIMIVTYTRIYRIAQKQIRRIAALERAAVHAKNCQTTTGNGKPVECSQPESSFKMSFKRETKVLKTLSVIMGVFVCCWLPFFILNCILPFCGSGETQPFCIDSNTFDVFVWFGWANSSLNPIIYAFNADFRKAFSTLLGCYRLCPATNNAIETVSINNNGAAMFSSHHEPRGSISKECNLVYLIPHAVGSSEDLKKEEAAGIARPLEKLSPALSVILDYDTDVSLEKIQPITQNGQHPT

In the case of `CN1CCc2cc(Cl)c(O)cc2[C@H]2c3cccc(CNCc4ccccc4)c3CC[C@@H]21` [5a1], the Ki at human D1 receptors [1] (setting [3]) is less than 5 nM. The same measure, in the same setting: next, `CN1CCc2cc(Cl)c(O)cc2[C@H]2c3cccc(CNC(c4ccccc4)c4ccccc4)c3CC[C@@H]21` [5a14]: less than 10 nM; `CN1CCc2cc(Cl)c(O)cc2[C@H]2c3cccc(CNC4CC4)c3CC[C@@H]21` [5a38]: less than 5 nM. For the compound `CN(C)Cc1cccc2c1CC[C@H]1[C@H]2c2cc(O)c(Cl)cc2CCN1C` [5a50], at human D1 receptors [1] (setting [3]), the Ki is less than 5 nM.

Turning to `CN1CCc2cc(Cl)c(O)cc2[C@H]2c3cc(CNc4cccnc4)ccc3CC[C@@H]21` [5b46], the Ki on human D1 receptors [1] (setting [3]) was less than 100 nM.

Take `C[C@@H](NCc1ccc(C2CN(C)CCc3cc(Cl)c(O)cc32)cc1)C1CCCCC1` (stereo partly drawn) [5c16]: the Ki on human D1 receptors [1] (setting [3]) was less than 5 nM.

On to `CC(=O)N(Cc1cccc2c1CC[C@H]1[C@H]2c2cc(O)c(Cl)cc2CCN1C)c1ccccc1` [6a6], for which, on human D1 receptors [1] (setting [3]), the Ki fell in the range of 10 to 50 nM.

In the case of `CN1CCc2cc(Cl)c(O)cc2[C@H]2c3cc(CN(Cc4ccccc4)C(=O)c4ccccc4)ccc3CC[C@@H]21` [6b1], at human D1 receptors [1] (setting [3]), the Ki lay within 10 to 50 nM. With `CC(=O)N(Cc1ccc(C2CN(C)CCc3cc(Cl)c(O)cc32)cc1)C1CCC1` (stereo not drawn) [6c26], the Ki at human D1 receptors [1] (setting [3]) was less than 5 nM. Turning to `CN1CCc2cc(Cl)c(O)cc2[C@H]2c3cc(CN(Cc4ccccc4)S(C)(=O)=O)ccc3CC[C@@H]21` [7b7], the Ki at human D1 receptors [1] (setting [3]) was less than 100 nM. On the same count and under the same terms, next, `CN1CCc2cc(Cl)c(O)cc2C(c2ccc(CN(C3CCC3)S(C)(=O)=O)cc2)C1` (stereo not drawn) [7c16]: less than 5 nM; `CN1CCc2cc(Cl)c(O)cc2C(c2ccc(CN(C)S(=O)(=O)c3ccccc3)cc2)C1` (stereo not drawn) [7c18]: less than 5 nM; `CCNC(=O)N(Cc1ccc(F)cc1)Cc1cccc2c1CC[C@H]1[C@H]2c2cc(O)c(Cl)cc2CCN1C` [8a3]: 10 to 50 nM. The same measure, in the same setting: next, `CC(C)NC(=O)N(Cc1ccc2c(c1)[C@@H]1c3cc(O)c(Cl)cc3CCN(C)[C@H]1CC2)c1ccccc1` [8b11]: less than 100 nM; `CCCN(Cc1ccc(C2CN(C)CCc3cc(Cl)c(O)cc32)cc1)C(=O)Nc1ccccc1` (stereo not drawn) [8c33]: less than 10 nM; `CN1CCc2cc(Cl)c(O)cc2C2c3cccc(C(=O)N4CCN(c5ccccn5)CC4)c3CCC21` (stereo not drawn) [13a2]: less than 10 nM.

Take `CN1CCN(C(=O)c2cccc3c2CCC2C3c3cc(O)c(Cl)cc3CCN2C)CC1` (stereo not drawn) [13a6]: on human D1 receptors [1] (setting [3]), the Ki lay in the range of 10 to 50 nM.

Turning to `CN1CCc2cc(Cl)c(O)cc2C2c3cccc(C(=O)NCCc4ccccc4)c3CCC21` (stereo not drawn) [13a7], the Ki on human D1 receptors [1] (setting [3]) was less than 5 nM. Same read-out and setting: next, `CN(C)C(=O)c1cccc2c1CCC1C2c2cc(O)c(Cl)cc2CCN1C` (stereo not drawn) [13a12]: less than 10 nM. Regarding `CN1CCc2cc(Cl)c(O)cc2C2c3cccc(C(=O)NCc4ccccn4)c3CCC21` (stereo not drawn) [13a14], at human D1 receptors [1] (setting [3]), the Ki was less than 10 nM. `CN1CCc2cc(Cl)c(O)cc2C2c3cccc(C(=O)NCc4cccnc4)c3CCC21` (stereo not drawn) [13a16]: on human D1 receptors [1] (setting [3]), the Ki is less than 10 nM. The same measure, in the same setting: with `CN1CCc2cc(Cl)c(O)cc2C2c3cccc(C(=O)NCc4ccncc4)c3CCC21` (stereo not drawn) [13a19] the figure was less than 10 nM; with `CN1CCc2cc(Cl)c(O)cc2C2c3cccc(C(=O)NCCc4ccccn4)c3CCC21` (stereo not drawn) [13a20], less than 10 nM. As to `CN1CCc2cc(Cl)c(O)cc2C2c3cccc(C(=O)NCc4ccccc4)c3CCC21` (stereo not drawn) [13a21], the Ki on human D1 receptors [1] (setting [3]) is less than 10 nM. Still for that read-out and setting: with `CNC(=O)c1cccc2c1CCC1C2c2cc(O)c(Cl)cc2CCN1C` (stereo not drawn) [13a24] the figure was less than 5 nM; with `CC(NC(=O)c1ccc(C2CN(C)CCc3cc(Cl)c(O)cc32)cc1)c1ccccc1` (stereo not drawn) [13d1], 10 to 50 nM.

Take `CN1CCc2cc(Cl)c(O)cc2[C@H]2c3cc(S(=O)(=O)NCc4ccccc4)ccc3CC[C@@H]21` [15l]: the Ki on human D1 receptors [1] was 10 to 50 nM. On to `CN1CCc2cc(Cl)c(O)cc2[C@H]2c3ccc(NC(=O)C4CC4)cc3CC[C@@H]21` [18a1], for which the Ki at human D1 receptors [1] (setting [3]) was less than 5 nM. As for `CC(=O)Nc1ccc2c(c1)CC[C@H]1[C@H]2c2cc(O)c(Cl)cc2CCN1C` [18a4], on human D1 receptors [1], the Ki is less than 10 nM. As for `CN1CCc2cc(Cl)c(O)cc2[C@H]2c3ccc(NC(=O)C4CCCC4)cc3CC[C@@H]21` [18a6], the Ki at human D1 receptors [1] is less than 5 nM. Compound `CN1CCc2cc(Cl)c(O)cc2[C@H]2c3ccc(NC(=O)CC4CC4)cc3CC[C@@H]21` [18a8] had a Ki on human D1 receptors [1] of less than 10 nM. Same read-out and setting: with `CN1CCc2cc(Cl)c(O)cc2[C@H]2c3cccc(NC(=O)c4cccc5ccccc45)c3CC[C@@H]21` [18b15] the figure was 10 to 50 nM. On to `CN1CCc2cc(Cl)c(O)cc2[C@H]2c3cccc(NS(=O)(=O)c4ccc(F)cc4)c3CC[C@@H]21` [19a6], for which, on human D1 receptors [1], the Ki is less than 10 nM.

In the case of `CN1CCc2cc(Cl)c(O)cc2[C@H]2c3ccc(NS(C)(=O)=O)cc3CC[C@@H]21` [19b1], in the test with human D1 receptors [2], the “D2:D1 ratio (selectivity)” value was 6642. Also, the Ki is less than 5 nM at human D1 receptors [1] (setting [3]) and 0.45 nM on human D1 receptors [1] (membranes of Ltk- cells expressing human D1, 1 nM [3H] compound of formula III, 1 hour at room temperature, read-out: Ki (D1)). Turning to `CCS(=O)(=O)Nc1ccc2c(c1)CC[C@H]1[C@H]2c2cc(O)c(Cl)cc2CCN1C` [19b5], on human D1 receptors [1], the Ki is less than 5 nM. Same read-out and setting: next, `CCCS(=O)(=O)Nc1ccc2c(c1)CC[C@H]1[C@H]2c2cc(O)c(Cl)cc2CCN1C` [19b23]: less than 5 nM. On to `CN1CCc2cc(Cl)c(O)cc2[C@H]2c3ccc(NS(=O)(=O)c4cccc(C#N)c4)cc3CC[C@@H]21` [19b24], for which the Ki on human D1 receptors [1] was less than 10 nM. Same read-out and setting: with `CN1CCc2cc(Cl)c(O)cc2[C@H]2c3ccc(NS(=O)(=O)Cc4ccccc4)cc3CC[C@@H]21` [19b31] the figure was less than 5 nM; with `CN1CCc2cc(Cl)c(O)cc2[C@H]2c3ccc(NS(=O)(=O)N(C)C)cc3CC[C@@H]21` [19b32], less than 5 nM. Still for that read-out and setting: with `CN1CCc2cc(Cl)c(O)cc2[C@H]2c3cccc(NC(=O)N4CCCC4)c3CC[C@@H]21` [20a7] the figure was less than 5 nM; with `CN(C)C(=O)Nc1cccc2c1CC[C@H]1[C@H]2c2cc(O)c(Cl)cc2CCN1C` [20a8], less than 5 nM. On the same count and under the same terms, with `CN1CCc2cc(Cl)c(O)cc2[C@H]2c3cccc(NC(=O)Nc4cc(Cl)nc(Cl)c4)c3CC[C@@H]21` [20a33] the figure was 10 to 50 nM; with `CN1CCc2cc(Cl)c(O)cc2[C@H]2c3ccc(NC(=O)Nc4ccccc4Cl)cc3CC[C@@H]21` [20b5], less than 10 nM. `CCNC(=O)Nc1ccc2c(c1)CC[C@H]1[C@H]2c2cc(O)c(Cl)cc2CCN1C` [20b6] displayed a Ki on human D1 receptors [1] of less than 5 nM. Same read-out and setting: with `CN1CCc2cc(Cl)c(O)cc2[C@H]2c3ccc(NC(=O)Nc4c(Cl)cccc4Cl)cc3CC[C@@H]21` [20b30] the figure was less than 5 nM. In the case of `CN1CCc2cc(Cl)c(O)cc2[C@H]2c3ccc(NCc4ccccc4)cc3CC[C@@H]21` [21a1], the Ki at human D1 receptors [1] (setting [3]) was less than 5 nM.

As for `CN1CCc2cc(Cl)c(O)cc2[C@H]2c3ccc(NCC4CCCC4)cc3CC[C@@H]21` [21a2], the Ki at human D1 receptors [1] is less than 5 nM.

With `CC(=O)N(CC1CCCC1)c1ccc2c(c1)CC[C@H]1[C@H]2c2cc(O)c(Cl)cc2CCN1C` [22a2], the Ki on human D1 receptors [1] (setting [3]) lay within 10 to 50 nM.

With `CC(=O)N(CCCCc1ccccc1)c1ccc2c(c1)[C@@H]1c3cc(O)c(Cl)cc3CCN(C)[C@H]1CC2` [22b1], the Ki at human D1 receptors [1] (setting [3]) was 10 to 50 nM. As for `COC(=O)Nc1ccc2c(c1)CC[C@H]1[C@H]2c2cc(O)c(Cl)cc2CCN1C` [24a1], the Ki on human D1 receptors [1] (setting [3]) was less than 5 nM. On to `CCOC(=O)Nc1ccc2c(c1)CC[C@H]1[C@H]2c2cc(O)c(Cl)cc2CCN1C` [24a2], for which the Ki at human D1 receptors [1] (setting [3]) was less than 5 nM. Consider `COc1ccc(OC(=O)Nc2ccc3c(c2)CC[C@H]2[C@H]3c3cc(O)c(Cl)cc3CCN2C)cc1` [24a3], for which the Ki at human D1 receptors [1] was less than 5 nM.

At human D1 receptors [1], `COc1ccc(OC(=O)Nc2cccc3c2CC[C@H]2[C@H]3c3cc(O)c(Cl)cc3CCN2C)cc1` [24b2] had a Ki of less than 5 nM.

For `CN1CCc2cc(Cl)c(O)cc2[C@H]2c3cccc(-c4ncc[nH]4)c3CC[C@@H]21` [25c], the Ki on human D1 receptors [1] (setting [3]) was less than 5 nM.

For the compound `CN1CCc2cc(Cl)c(O)cc2[C@H]2c3cccc(C#N)c3CC[C@@H]21` [27a], at human D1 receptors [1] (setting [3]), the Ki was less than 10 nM. As for `Oc1cc2c(cc1Cl)CCN[C@H]1CCc3c(-c4ccncc4)cccc3[C@H]21` [29c], the Ki at human D1 receptors [1] (setting [3]) was less than 5 nM. Same read-out and setting: with `CS(=O)(=O)Nc1ccc2c(c1)CC[C@@H]1NCCc3cc(Cl)c(O)cc3[C@@H]21` [30a] the figure was less than 10 nM; with `CC(=O)N(Cc1ccc([C@H]2CNCCc3cc(Cl)c(O)cc32)cc1)C1CCC1` [34a2], less than 10 nM; with `CN1CCc2cc(Cl)c(O)cc2C(c2ccc(NS(C)(=O)=O)cc2)C1` (stereo not drawn) [35a1], less than 5 nM. Still for that read-out and setting: with `CN1CCc2cc(Cl)c(O)cc2C(c2ccc(NS(=O)(=O)c3ccccc3)cc2)C1` (stereo not drawn) [35a2] the figure was less than 10 nM; with `CN1CCc2cc(Cl)c(O)cc2[C@H]2c3ccc(N(C)S(C)(=O)=O)cc3CC[C@@H]21` [compound 23], less than 5 nM.
